Experimental findings from patent US20130102009A1, “SIRTUIN ACTIVATORS AND ACTIVATION ASSAYS” (priority 2010, published 2013) are described below.

Peptide text beside a SMILES is read from it. * marks the point of attachment. AMC = Cc1cc(=O)oc2cc(N*)ccc12

For assay [1], the target named is T1, SIRT1(183-664) (Homo sapiens, UniProt Q96EB6).
T1 construct: the truncated version used for biophysical studies SIRT1(183-664); made in house
T1 sequence (Q96EB6 183-664): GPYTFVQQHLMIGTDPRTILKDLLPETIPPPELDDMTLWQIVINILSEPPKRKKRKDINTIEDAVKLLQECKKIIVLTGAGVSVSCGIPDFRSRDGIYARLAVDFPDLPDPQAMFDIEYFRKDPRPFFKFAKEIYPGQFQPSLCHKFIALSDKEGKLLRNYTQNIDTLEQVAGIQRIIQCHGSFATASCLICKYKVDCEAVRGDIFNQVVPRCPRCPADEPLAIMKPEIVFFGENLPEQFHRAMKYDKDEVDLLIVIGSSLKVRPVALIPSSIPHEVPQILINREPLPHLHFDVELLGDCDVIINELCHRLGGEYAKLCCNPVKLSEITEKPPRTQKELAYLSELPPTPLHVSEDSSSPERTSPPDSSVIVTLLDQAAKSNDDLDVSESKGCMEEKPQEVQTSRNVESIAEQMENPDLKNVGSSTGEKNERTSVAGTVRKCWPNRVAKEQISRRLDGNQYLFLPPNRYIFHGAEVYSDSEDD
Nature of the assay: ITC binding of STACs to SIRT1(183-664). As to conditions: dissociation constant of SRT:SIRT1 complex, read-out: Kx (μM), ITC. The protocol: All peptides were prepared by BioPeptide (San Diego, Calif.) and shown to be at least 95% pure by analytical HPLC analysis. Bovine glutamate dehydrogenase (GDH), α-ketoglutarate, NADH and NAD^+ were from Sigma Chemical Company. Full-length, human SIRT1 and the truncated version used for biophysical studies SIRT1(183-664) were prepared as described previously, and shown to have equivalent kinetic properties (Milne et al. (2007) Nature 450, 712-716). The nicotinamidase PNC1 was prepared as described by Denu and colleagues (Smith et al. (2009) Anal Biochem 394, 101-109). ITC experiments were performed using either a VP-ITC system or iTC200 system (MicroCal) at 26° C. in a buffer composed of 137 mM NaCl, 2.7 mM KCl, 1 mM MgCl2, 2 mM TCEP, 5% (v/v) glycerol and 50 mM HEPES-NaOH, pH 7.3. SIRT1(183-664) was purified and dialyzed against the buffer, centrifuged, and degassed before the experiment. The peptide and compounds were dissolved in the final dialysis buffer and their pH values were adjusted to match that of the protein solution. […] To characterize this interaction using the iTC200 system, 1 mM TAMRA-peptide was injected in 20 aliquots of 2 μL, (except the first injection, which was 0.5 μL) into a 0.202 mL sample cell containing 100 μM STAC. For STACs with poor solubility, the concentrations were adjusted accordingly. […] To characterize the interaction of a STAC with SIRT1(183-664) on the VP-ITC system, 100 μM enzyme was injected in 35 aliquots of 8 μL, (except the first injection, which was 2 μL) into a 1.47 mL sample cell containing 10 μM STAC. […] In all cases, data was corrected for the heat of dilution and fitted using a nonlinear least-squares routine using a single-site binding model with Origin for ITC v7.0383 (Microcal) with the stoichiometry (n), the enthalpy of the reaction (ΔH) and the association constant (Ka) calculated.

Assay [2] has as its target T2, SIRT1 (Homo sapiens, UniProt Q96EB6).
T2 sequence (Q96EB6 1-747): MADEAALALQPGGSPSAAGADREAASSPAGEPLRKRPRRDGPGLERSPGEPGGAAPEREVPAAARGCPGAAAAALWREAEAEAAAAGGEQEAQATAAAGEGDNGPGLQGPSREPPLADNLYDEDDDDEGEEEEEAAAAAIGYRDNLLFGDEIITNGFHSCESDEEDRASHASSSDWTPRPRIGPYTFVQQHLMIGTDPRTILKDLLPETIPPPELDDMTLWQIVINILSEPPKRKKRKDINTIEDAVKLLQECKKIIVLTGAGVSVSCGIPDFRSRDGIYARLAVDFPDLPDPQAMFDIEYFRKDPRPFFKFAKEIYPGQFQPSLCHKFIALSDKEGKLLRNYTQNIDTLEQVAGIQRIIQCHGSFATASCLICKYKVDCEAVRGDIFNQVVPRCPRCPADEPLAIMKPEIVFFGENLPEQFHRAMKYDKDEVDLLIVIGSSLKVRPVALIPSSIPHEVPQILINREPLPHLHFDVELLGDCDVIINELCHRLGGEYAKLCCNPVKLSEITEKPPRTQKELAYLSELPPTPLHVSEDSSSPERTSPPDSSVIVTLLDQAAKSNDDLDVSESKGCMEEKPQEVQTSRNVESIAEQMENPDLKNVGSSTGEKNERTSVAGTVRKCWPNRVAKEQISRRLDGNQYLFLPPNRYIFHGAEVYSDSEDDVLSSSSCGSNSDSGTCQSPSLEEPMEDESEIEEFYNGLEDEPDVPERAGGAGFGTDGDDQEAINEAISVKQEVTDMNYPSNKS
In words: Mass spectrometry based SIRT1 activation assay (TAMRA/5TMR-labeled 20mer peptide). Type of assay: biochemical. The source says:
A mass spectrometry based assay was used to identify modulators of SIRTI activity. The mass spectrometry based assay utilizes a peptide having 20 amino acid residues as follows: Ac-EE-K(biotin)-GQSTSSHSK(Ac)NleSTEG-K(5TMR)-EE-NH2 (SEQ ID NO: 1) wherein K(Ac) is an acetylated lysine residue and Nle is a norleucine. The peptide is labeled with the fluorophore 5TMR (excitation 540 nrnIemission 580 nm) at the C-terminus. The sequence of the peptide substrate is based on p53 with several modifications. In addition, the methionine residue naturally present in the sequence was replaced with the norleucine because the methionine may be susceptible to oxidation during synthesis and purification.
The mass spectrometry assay is conducted as follows: 0.5 J-1M peptide substrate and 120 μM βNAD^+ is incubated with 10 nM SIRT1 for 25 minutes at 25° C. in a reaction buffer (50 mM Tris-acetate pH 8, 137 mM NaCl, 2.7 mM KCl, 1 mM MgClz, 5 mM DTT, 0.05% BSA). Test compounds may be added to the reaction as described above. The SirTI gene is cloned into a T7-promoter containing vector and transformed into BL21 (DE3). After the 25 minute incubation with SIRT1, 10 μL of 10% formic acid is added to stop the reaction. Reactions are sealed and frozen for later mass spec analysis. Determination of the mass of the substrate peptide allows for precise determination of the degree of acetylation (i.e. starting material) as compared to deacetylated peptide (product).
A control for inhibition of sirtuin activity is conducted by adding 1 μL of 500 mM nicotinamide as a negative control at the start of the reaction (e.g., permits determination of maximum sirtuin inhibition). A control for activation of sirtuin activity is conducted using 10 nM of sirtuin protein, with 1 μL of DMSO in place of compound, to determine the amount of deacetylation of the substrate at a given timepoint within the linear range of the assay. This timepoint is the same as that used for test compounds and, within the linear range, the endpoint represents a change in velocity.
For the above assay, SIRTI protein was expressed and purified as follows. The SirT1 gene was cloned into a T7-promoter containing vector and transformed into BL21(DE3). The protein was expressed by induction with 1 mM IPTG as an N-terminal His-tag fusion protein at 18° C. overnight and harvested at 30,000×g. Cells were lysed with lysozyme in lysis buffer (50 mM Tris-HCl, 2 mM Tris[2-carboxyethyl]phosphine (TCEP), 10 μM ZnCl2, 200 mM NaCl) and further treated with sonication for 10 min for complete lysis. The protein was purified over a Ni-NTA column (Amersham) and fractions containing pure protein were pooled, concentrated and run over a sizing column (Sephadex S200 26/60 global). The peak containing soluble protein was collected and run on an Ion-exchange column (MonoQ). Gradient elution (200 mM-500 mM NaCl) yielded pure 20 protein. This protein was concentrated and dialyzed against dialysis buffer (20 mM TrisHCl, 2 mM TCEP) overnight. The protein was aliquoted and frozen at −80° C. until further use.
Sirtuin modulating compounds that activated SIRT1 were identified using the assay described above and are shown below in Table 4. The EC1.5 values represent the concentration of test compounds that result in 150% activation of SIRT1. The EC1.5 values for the activating compounds are represented by A (EC1.5≦1 μM), B (EC1.5>1 μM). The percent maximum fold activation is represented by A (Fold activation ≧200%) or B (Fold Activation <200%).

Assay [3] addresses T2, SIRT1. In words: Steady-state kinetic parameters for SIRT1 substrates (PNC1-GDH-coupled assay). It counts as biochemical. Also on record: kc/K1: unit not given here. The following applies: 25° C., pH 7.5, [NAD+]o = 2 mM, [SIRT1]o 50-1,000 nM. As to the method: All peptides were prepared by BioPeptide (San Diego, Calif.) and shown to be at least 95% pure by analytical HPLC analysis. Bovine glutamate dehydrogenase (GDH), α-ketoglutarate, NADH and NAD^+ were from Sigma Chemical Company. Full-length, human SIRT1 and the truncated version used for biophysical studies SIRT1(183-664) were prepared as described previously, and shown to have equivalent kinetic properties (Milne et al. (2007) Nature 450, 712-716). The nicotinamidase PNC1 was prepared as described by Denu and colleagues (Smith et al. (2009) Anal Biochem 394, 101-109).
To determine the interaction of STACs with SIRT1 two kinetic methods were employed. One, which was used for TAMRA-peptide, desTAMRA-peptide, des(biotin,TAMRA)-peptide, and p53-20 mer, used a previously described mass spectroscopic method for detection of peptide reaction products (Milne et al. (2007) Nature 450, 712-716). The other, used with peptides of general structure Ac-Arg-His-Lys-Lys^Ac-X, used a continuous, enzyme-coupled method reported previously (Smith et al. (2009) Anal Biochem 394, 101-109), in which the SRT1 product nicotinamide is first converted into nicotinic acid and ammonia by the action of PNC1, and the ammonia then used by GDH to convert α-ketoglutarate into glutamate. This reaction occurs with oxidation of NADH to NAD^+ which is accompanied by a change in absorbance at 340 nm (Δε340=−6,200 M^−1 cm^−1).
The kinetic experiments used to characterize activators were run on a Perkin Elmer Lambda 25 spectrophotometer equipped with a water-jacketed, eight-cell changer maintained at 25° C. In a typical kinetic experiment, all components of the reaction solution except SIRT1 were added to a 1 mL cuvette and allowed to reach thermal equilibrium. Final concentrations of the coupling system components were: 1 μM PNC1, 0.23 mM NADH, 3.4 mM α-ketoglutarate, and 20 U/mL bovine GDH. This solution also contained peptide substrate, NAD^.0., and activator, at concentrations indicated in the text. The final DMSO concentration was kept constant at 1%, and the buffer used in these experiments was 50 mM HEPES, 150 mM NaCl, pH 7.5. While the system was reaching thermal equilibrium, the absorbance was monitored to provide an accurate estimate of the background rate, which was subtracted from the reaction rate after the addition of SIRT1.
The parameters reported in this table were all determined using the PNC1-GDH-coupled assay. Kinetic parameters for the four 20 mers were also estimated using the mass spectroscopy-based assay first described by Milne et al. ((2007) Nature 450, 712-716) and agree with those reported in Table 3.

For `CCCNc1cc(-c2nc3c(NC(=O)c4ccc(CN5CCNCC5)cc4)cccc3[nH]2)ccn1` [drawing 20], in assay [1], the Kd is 0.43 µM. On to `CCCNc1cc(-c2nc3c(NC(=O)c4ccc(CN5CCNCC5)cc4)cccc3[nH]2)ccn1` [Compound 13], for which the Kd in assay [1] is 0.32 µM. In addition, in assay [2] (25 min, percent maximum fold activation of SIRT1, read-out: % FOLD ACT.), the Emax is not below 200%. The “EC1.5 uM” value in assay [2] (concentration that results in 150% activation of SIRT1) is reported as “A (EC1.5≦1 μM)”. In assay [3], `CC(=O)NCCCC[C@H](NC(=O)[C@H](CCCCN)NC(=O)[C@H](Cc1c[nH]cn1)NC(=O)[C@H](CCCNC(=N)N)NC(C)=O)C(=O)Nc1ccc2c(C)cc(=O)oc2c1` [RHKK^Ac-AMC, Ac-Arg-His-Lys-Lys^Ac-AMC] (Ac-RHKK(Ac)-{AMC}) returned a kc of 0.091 s⁻¹ and a kc/K1 of 0.8. In the case of `CN(C)CCCNc1cc(-c2nc3c(NC(=O)c4ccc(CN5CCNCC5)cc4)cccc3[nH]2)ccn1` [drawing 21], the Kd in assay [1] is 0.32 µM.
